In patent publication US8759011B2, “Assay system for determining binding of hydrophobic drugs” (Nederlandse Organisatie voor …, priority 2009, dated 2014):

Test system: human plasma
Experiment: plasma binding by partition extraction in dimethylsiloxane-coated 96-well plates
Assay type: in vitro ADME
Details: one plate
Procedure: 96-wells deepwell plates (lot 1450-401 Perkin-Elmer Lifesciences) were coated with dimethylsiloxane by making the solutions A-H here below in n-hexane. The used dimethylsiloxane (Silicone rubber, GE Silicones, Bergen op Zoom, The Netherlands) has a density of 1.06. Solution H contains 9.54 g dimethylsiloxane in 300 ml n-hexane.
From solutions A-H 100 μl is pipetted in row A-H of each plate. Plates were dried to air for minimally 18 hours (overnight).
To each dilution of plasma (solutions 1-12) an identical amount of the compound to be tested is added (about […]/200 μl solution). […] The solutions are incubated with the compound overnight at 4°.
The plasma solutions 1-12 are added to corresponding columns 1-12 of each plate (200 μl/well). Also 200 μl was added to a separate vessel to be able to correct for (plasma concentration dependent) solubilization. The next day the plates are emptied, washed once with aqua bidest and dried. When sufficient dry in all wells 200 μl counting solution (Optiphase Hisafe 2, Perkin Elmer Lifesciences) is added and the plates are covered. After incubation for minimally 4 hours under gently shaking the radioactivity in each plate is determined using liquid scintillation counting with a MicroBeta device (Perkin Elmer).
Additionally a total count was determined for each well. The total count is the count in the polymer coating+the count in the remaining fluid. The latter was determined by isolating 25 μl from solution in each well prior to emptying, and mixing with Optiphase (Perkin Elmer) followed by liquid scintillation counting.
1. For each datapoint for which the total count was determined, the recovery of total radioactivity was determined by comparing with the counts of the reference spiking solution. Cells with a total recovery <75% were excluded from further data analysis.
2. From all rows containing polymer, the a-specific binding, i.e. the corresponding counts from the row without polymer, was substracted.
3. Curve fitting was applied using the following formula for each cell:
Predicted counts in coating=Tc/((1/ffp+1/fp−1)×(fp×Vw)/Kpdms/Vp)), where
The above formula was fitted using ffp and Kpdms target parameters to be optimized using the least squares regression method over all wells that were included in the data analysis, by calculating the squared difference between the measured counts in the coating and the predicted counts in the coating. Results

Structure (SMILES): CC(C)c1nc(CN(C)C(=O)N[C@H](C(=O)N[C@@H](Cc2ccccc2)C[C@H](O)[C@H](Cc2ccccc2)NC(=O)OCc2cncs2)C(C)C)cs1 [Ritonavir]
- counts in the polymer coating (plasma 0 ml/ml, coating 0 nl): 2561
- counts in the polymer coating (plasma 0 ml/ml, coating 4.1 nl): 3274
- counts in the polymer coating (plasma 0 ml/ml, coating 10.2 nl): 4727
- counts in the polymer coating (plasma 0 ml/ml, coating 25.6 nl): 6222
- counts in the polymer coating (plasma 0 ml/ml, coating 64 nl): 6561
- counts in the polymer coating (plasma 0 ml/ml, coating 160 nl): 8997
- counts in the polymer coating (plasma 0 ml/ml, coating 400 nl): 9656
- counts in the polymer coating (plasma 0 ml/ml, coating 1000 nl): 10194
- counts in the polymer coating (plasma 0.0005 ml/ml, coating 0 nl): 408
- counts in the polymer coating (plasma 0.0005 ml/ml, coating 4.1 nl): 3323
- counts in the polymer coating (plasma 0.0005 ml/ml, coating 10.2 nl): 5936
- counts in the polymer coating (plasma 0.0005 ml/ml, coating 25.6 nl): 9146
- counts in the polymer coating (plasma 0.0005 ml/ml, coating 64 nl): 14297
- counts in the polymer coating (plasma 0.0005 ml/ml, coating 160 nl): 16590
- counts in the polymer coating (plasma 0.0005 ml/ml, coating 400 nl): 17305
- counts in the polymer coating (plasma 0.0005 ml/ml, coating 1000 nl): 17396
- counts in the polymer coating (plasma 0.0008 ml/ml, coating 0 nl): 355
- counts in the polymer coating (plasma 0.0008 ml/ml, coating 4.1 nl): 3033
- counts in the polymer coating (plasma 0.0008 ml/ml, coating 10.2 nl): 6243
- counts in the polymer coating (plasma 0.0008 ml/ml, coating 25.6 nl): 9649
- counts in the polymer coating (plasma 0.0008 ml/ml, coating 64 nl): 15214
- counts in the polymer coating (plasma 0.0008 ml/ml, coating 160 nl): 17344
- counts in the polymer coating (plasma 0.0008 ml/ml, coating 400 nl): 18129
- counts in the polymer coating (plasma 0.0008 ml/ml, coating 1000 nl): 18254
- counts in the polymer coating (plasma 0.001 ml/ml, coating 0 nl): 368
- counts in the polymer coating (plasma 0.001 ml/ml, coating 4.1 nl): 2677
- counts in the polymer coating (plasma 0.001 ml/ml, coating 10.2 nl): 6668
- counts in the polymer coating (plasma 0.001 ml/ml, coating 25.6 nl): 10037
- counts in the polymer coating (plasma 0.001 ml/ml, coating 64 nl): 15293
- counts in the polymer coating (plasma 0.001 ml/ml, coating 160 nl): 17749
- counts in the polymer coating (plasma 0.001 ml/ml, coating 400 nl): 18063
- counts in the polymer coating (plasma 0.001 ml/ml, coating 1000 nl): 18984
- counts in the polymer coating (plasma 0.003 ml/ml, coating 0 nl): 250
- counts in the polymer coating (plasma 0.003 ml/ml, coating 4.1 nl): 2391
- counts in the polymer coating (plasma 0.003 ml/ml, coating 10.2 nl): 6779
- counts in the polymer coating (plasma 0.003 ml/ml, coating 25.6 nl): 9818
- counts in the polymer coating (plasma 0.003 ml/ml, coating 64 nl): 15161
- counts in the polymer coating (plasma 0.003 ml/ml, coating 160 nl): 18112
- counts in the polymer coating (plasma 0.003 ml/ml, coating 400 nl): 19067
- counts in the polymer coating (plasma 0.003 ml/ml, coating 1000 nl): 19314
- counts in the polymer coating (plasma 0.005 ml/ml, coating 0 nl): 266
- counts in the polymer coating (plasma 0.005 ml/ml, coating 4.1 nl): 2725
- counts in the polymer coating (plasma 0.005 ml/ml, coating 10.2 nl): 7054
- counts in the polymer coating (plasma 0.005 ml/ml, coating 25.6 nl): 10234
- counts in the polymer coating (plasma 0.005 ml/ml, coating 64 nl): 15908
- counts in the polymer coating (plasma 0.005 ml/ml, coating 160 nl): 18628
- counts in the polymer coating (plasma 0.005 ml/ml, coating 400 nl): 19174
- counts in the polymer coating (plasma 0.005 ml/ml, coating 1000 nl): 19676
- counts in the polymer coating (plasma 0.008 ml/ml, coating 0 nl): 262
- counts in the polymer coating (plasma 0.008 ml/ml, coating 4.1 nl): 2605
- counts in the polymer coating (plasma 0.008 ml/ml, coating 10.2 nl): 5943
- counts in the polymer coating (plasma 0.008 ml/ml, coating 25.6 nl): 9899
- counts in the polymer coating (plasma 0.008 ml/ml, coating 64 nl): 15892
- counts in the polymer coating (plasma 0.008 ml/ml, coating 160 nl): 18582
- counts in the polymer coating (plasma 0.008 ml/ml, coating 400 nl): 19405
- counts in the polymer coating (plasma 0.008 ml/ml, coating 1000 nl): 19541
- counts in the polymer coating (plasma 0.01 ml/ml, coating 0 nl): 260
- counts in the polymer coating (plasma 0.01 ml/ml, coating 4.1 nl): 2644
- counts in the polymer coating (plasma 0.01 ml/ml, coating 10.2 nl): 6466
- counts in the polymer coating (plasma 0.01 ml/ml, coating 25.6 nl): 9247
- counts in the polymer coating (plasma 0.01 ml/ml, coating 64 nl): 15112
- counts in the polymer coating (plasma 0.01 ml/ml, coating 160 nl): 18647
- counts in the polymer coating (plasma 0.01 ml/ml, coating 400 nl): 19137
- counts in the polymer coating (plasma 0.01 ml/ml, coating 1000 nl): 19454
- counts in the polymer coating (plasma 0.02 ml/ml, coating 0 nl): 208
- counts in the polymer coating (plasma 0.02 ml/ml, coating 4.1 nl): 2135
- counts in the polymer coating (plasma 0.02 ml/ml, coating 10.2 nl): 5288
- counts in the polymer coating (plasma 0.02 ml/ml, coating 25.6 nl): 8673
- counts in the polymer coating (plasma 0.02 ml/ml, coating 64 nl): 14665
- counts in the polymer coating (plasma 0.02 ml/ml, coating 160 nl): 18017
- counts in the polymer coating (plasma 0.02 ml/ml, coating 400 nl): 19188
- counts in the polymer coating (plasma 0.02 ml/ml, coating 1000 nl): 19218
- counts in the polymer coating (plasma 0.03 ml/ml, coating 0 nl): 195
- counts in the polymer coating (plasma 0.03 ml/ml, coating 4.1 nl): 1925
- counts in the polymer coating (plasma 0.03 ml/ml, coating 10.2 nl): 4066
- counts in the polymer coating (plasma 0.03 ml/ml, coating 25.6 nl): 6969
- counts in the polymer coating (plasma 0.03 ml/ml, coating 64 nl): 13475
- counts in the polymer coating (plasma 0.03 ml/ml, coating 160 nl): 17384
- counts in the polymer coating (plasma 0.03 ml/ml, coating 400 nl): 18707
- counts in the polymer coating (plasma 0.03 ml/ml, coating 1000 nl): 19112
- counts in the polymer coating (plasma 0.04 ml/ml, coating 0 nl): 156
- counts in the polymer coating (plasma 0.04 ml/ml, coating 4.1 nl): 1501
- counts in the polymer coating (plasma 0.04 ml/ml, coating 10.2 nl): 3633
- counts in the polymer coating (plasma 0.04 ml/ml, coating 25.6 nl): 5932
- counts in the polymer coating (plasma 0.04 ml/ml, coating 64 nl): 12160
- counts in the polymer coating (plasma 0.04 ml/ml, coating 160 nl): 16322
- counts in the polymer coating (plasma 0.04 ml/ml, coating 400 nl): 18174
- counts in the polymer coating (plasma 0.04 ml/ml, coating 1000 nl): 18716
- counts in the polymer coating (plasma 0.05 ml/ml, coating 0 nl): 124
- counts in the polymer coating (plasma 0.05 ml/ml, coating 4.1 nl): 1143
- counts in the polymer coating (plasma 0.05 ml/ml, coating 10.2 nl): 2760
- counts in the polymer coating (plasma 0.05 ml/ml, coating 25.6 nl): 5080
- counts in the polymer coating (plasma 0.05 ml/ml, coating 64 nl): 10938
- counts in the polymer coating (plasma 0.05 ml/ml, coating 160 nl): 16100
- counts in the polymer coating (plasma 0.05 ml/ml, coating 400 nl): 17730
- counts in the polymer coating (plasma 0.05 ml/ml, coating 1000 nl): 18325
